From patent US20210145000A1, “WEED CONTROL FROM APPLICATIONS OF PYRIDINE CARBOXYLIC ACID HERBICIDES AND ACETYL CoA CARBOXYLASE (ACCase) INHIBITORS” (Dow AgroSciences LLC, priority 2018, published 2021)

How the values were obtained:
Test in all cases: Postemergence herbicidal activity, greenhouse, visual injury
Format in all cases: in vivo
[1] = system: barnyardgrass (Echinochloa crus-galli, ECHCG); conditions: post-emergence, read-out: Effect (% visual injury) Obs
Description: (§1) The plants were grown for 7-36 days (d) in a greenhouse with an approximate 14-hour (h) photoperiod which was maintained at about 23° C. during the day and 22° C. during the night. Nutrients and water were added on a regular basis and supplemental lighting was provided with overhead metal halide 1000-Watt lamps as necessary. The plants were employed for testing when they reached the second or third true leaf stage.
(§2) Spray solutions of the experimental compound mixtures were prepared by adding the stock solutions to the appropriate amount of dilution solution to form a 12 mL spray solution in two-way combinations. […] Control plants were sprayed in the same manner with the solvent blank. Application rates for component (a) are in g ae/ha, and application rates for component (b) are in g ai/ha.
(§3) The treated plants and control plants were placed in a greenhouse as described above and watered by sub-irrigation to prevent wash-off of the test compounds. After 20-22 d, the condition of the test plants as compared with that of the control plants was determined visually and scored on a scale of 0 to 100 percent where 0 corresponds to no injury and 100 corresponds to complete kill. […] The Colby method was used to determine the herbicidal effects expected from the mixtures.

[2] = system: blackgrass (Alopecurus myosuroides, ALOMY); conditions: post-emergence, read-out: Effect (% visual injury) Obs
Description: as §1, §2, §3

[3] = system: giant foxtail (Setaria faberi, SETFA); conditions: post-emergence, read-out: Effect (% visual injury) Obs
Description: as §1, §2, §3

[4] = system: large crabgrass (Digitaria sanguinalis, DIGSA); conditions: post-emergence, read-out: Effect (% visual injury) Obs
Description: as §1, §2, §3

maize (Zea mays, ZEAMX) = conditions: post-emergence, read-out: Effect (% visual injury) Obs
Description: as §1, §2, §3

[5] = system: pigweed (Amaranthus retroflexus, AMARE); conditions: post-emergence, read-out: Effect (% visual injury) Obs
Description: as §1, §2, §3

[6] = system: rice (Oryza sativa, ORYSA); conditions: post-emergence, read-out: Effect (% visual injury) Obs
Description: as §1, §2, §3

[7] = system: velvetleaf (Abutilon theophrasti, ABUTH); conditions: post-emergence, read-out: Effect (% visual injury) Obs
Description: as §1, §2, §3

[8] = system: wild buckwheat (Polygonum convolvulus, POLCO); conditions: Fallopia convolvulus, post-emergence, read-out: Effect (% visual injury) Obs
Description: as §1, §2, §3

[9] = system: wild oat (Avena fatua, AVEFA); conditions: post-emergence, read-out: Effect (% visual injury) Obs
Description: as §1, §2, §3

[10] = system: wild pansy (Viola tricolor, VIOTR); conditions: post-emergence, read-out: Effect (% visual injury) Obs
Description: as §1, §2, §3

[11] = system: winter wheat (Triticum aestivum, TRZAW); conditions: post-emergence, read-out: Effect (% visual injury) Obs
Description: as §1, §2, §3

[12] = system: chickweed (Stellaria media, STEME); conditions: post-emergence, read-out: Effect (% visual injury) Obs
Description: (§4) Seeds of the desired test plant species were planted in Sun Gro MetroMix® 306 planting mixture, which typically has a pH of 6.0 to 6.8 and an organic matter content of about 30 percent, in plastic pots with a surface area of 103.2 square centimeters (cm^2). When required to ensure good germination and healthy plants, a fungicide treatment and/or other chemical or physical treatment was applied. The plants were grown for 7-36 days (d) in a greenhouse with an approximate 14-hour (h) photoperiod which was maintained at about 23° C. during the day and 22° C. during the night. Nutrients and water were added on a regular basis and supplemental lighting was provided with overhead metal halide 1000-Watt lamps as necessary. The plants were employed for testing when they reached the second or third true leaf stage.
(§5) An emulsifiable concentrate (EC) formulation containing Compound 1 at 100 gai/L was prepared by combining Compound 1 with 1-butyl-2-pyrrolidinone (Tamisolve NxG; 360.5 g/L), benzyl acetate (544.6 g/L) and Agnique MBL 520L surfactant (52.9 g/L). […] The concentrated stock solution was diluted with an aqueous mixture of 1.5% v/v of Agri-dex crop oil concentrate to provide the appropriate application rates. Compound requirements are based upon a 12 milliliter (mL) application volume at a rate of 187 liters per hectare (L/ha). Spray solutions of the experimental compound mixtures were prepared by adding the stock solutions to the appropriate amount of dilution solution to form a 12 mL spray solution in two-way combinations. Formulated compounds were applied to the plant material with an overhead Mandel track sprayer equipped with 8002E nozzles calibrated to deliver 187 L/ha over an application area of 0.503 square meters (m^2) at a spray height of 18 inches (43 centimeters (cm)) above average plant canopy. Control plants were sprayed in the same manner with the solvent blank. Application rates for component (a) are in g ae/ha, and application rates for component (b) are in g ai/ha.
as §3

[13] = system: poinsettia (Euphorbia heterophylla, EPHHL)
Description: as §4, §5, §3

[14] = system: winter rape (Brassica napus, BRSNW); conditions: post-emergence, read-out: Effect (% visual injury) Obs
Description: as §4, §5, §3

[15] = system: common lambsquarters (Chenopodium album L., CHEAL); conditions: post-emergence, read-out: Effect (% visual injury) Obs
Description: as §1, §2, §3

[16] = system: grain sorghum (Sorghum vulgare, SORVU); conditions: post-emergence, read-out: Effect (% visual injury) Obs
Description: as §1, §2, §3

[17] = system: soybean (Glycine max, GLXMA); conditions: post-emergence, read-out: Effect (% visual injury) Obs
Description: as §1, §2, §3

[18] = system: sunflower (Helianthus annuus, HELAN); conditions: post-emergence, read-out: Effect (% visual injury) Obs
Description: as §1, §2, §3

[19] = system: kochia (Kochia scoparia, KCHSC); conditions: Tralkoxydim 200 g ai/ha
Description: as §4, §5, §3

CCCCOC(=O)[C@@H](C)Oc1ccc(Oc2ccc(C(F)(F)F)cn2)cc1 [Fluazifop-butyl]
pest or weed control at 105 g/ha [1]: 100% | pest or weed control at 105 g/ha [2]: 20% | pest or weed control at 105 g/ha [3]: 97% | pest or weed control at 105 g/ha [4]: 95% | plant injury at 105 g/ha (maize (Zea mays, ZEAMX)): 100% | pest or weed control at 105 g/ha [5]: 0% | plant injury at 105 g/ha [6]: 85% | pest or weed control at 105 g/ha [7]: 0% | pest or weed control at 105 g/ha [8]: 0% | pest or weed control at 105 g/ha [9]: 95% | pest or weed control at 105 g/ha [10]: 0% | plant injury at 105 g/ha [11]: 90% | pest or weed control at 105 g/ha [12]: 0% | Effect (% visual injury) Obs ([13]; Fluazifop-butyl 105 g ai/ha): 0% | plant injury at 105 g/ha [14]: 0%

COC(=O)[C@@H](C)Oc1ccc(Oc2ncc(C(F)(F)F)cc2Cl)cc1 [Haloxyfop-P-methyl]
pest or weed control at 70 g/ha [1]: 100% | pest or weed control at 70 g/ha [2]: 97% | pest or weed control at 70 g/ha [15]: 0% | plant injury at 70 g/ha [16]: 100% | pest or weed control at 70 g/ha [4]: 100% | plant injury at 70 g/ha (maize (Zea mays, ZEAMX)): 100% | pest or weed control at 70 g/ha [5]: 0% | plant injury at 70 g/ha [6]: 100% | plant injury at 70 g/ha [17]: 0% | plant injury at 70 g/ha [18]: 0% | pest or weed control at 70 g/ha [7]: 0% | pest or weed control at 70 g/ha [8]: 0% | pest or weed control at 70 g/ha [10]: 0% | plant injury at 70 g/ha [11]: 100% | pest or weed control at 70 g/ha [12]: 0% | Effect (% visual injury) Obs ([13]; Haloxyfop-P-methyl 70 g ai/ha): 0% | plant injury at 70 g/ha [14]: 0%

CCc1cc(C)cc(CC)c1-c1c(OC(=O)C(C)(C)C)n2n(c1=O)CCOCC2 [Pinoxaden]
pest or weed control ([1]; Pinoxaden 30 g ai/ha): 100% | pest or weed control ([15]; Pinoxaden 30 g ai/ha): 0% | pest or weed control ([3]; Pinoxaden 30 g ai/ha): 0% | plant injury ([16]; Pinoxaden 30 g ai/ha): 100% | pest or weed control ([4]; Pinoxaden 30 g ai/ha): 10% | plant injury (maize (Zea mays, ZEAMX); Pinoxaden 30 g ai/ha): 10% | pest or weed control ([5]; Pinoxaden 30 g ai/ha): 0% | plant injury ([6]; Pinoxaden 30 g ai/ha): 99% | plant injury ([17]; Pinoxaden 30 g ai/ha): 0% | plant injury ([18]; Pinoxaden 30 g ai/ha): 0% | pest or weed control ([7]; Pinoxaden 30 g ai/ha): 0% | pest or weed control ([8]; Pinoxaden 30 g ai/ha): 0% | pest or weed control ([9]; Pinoxaden 30 g ai/ha): 95% | pest or weed control ([10]; Pinoxaden 30 g ai/ha): 0% | plant injury ([11]; Pinoxaden 30 g ai/ha): 0% | pest or weed control at 30 g/ha ([12]; Pinoxaden 30 g ai/ha): 0%

CCOC(=O)[C@@H](C)Oc1ccc(Oc2cnc3cc(Cl)ccc3n2)cc1 [Quizalofop-P-ethyl]
pest or weed control at 75 g/ha [1]: 100% | pest or weed control at 75 g/ha [2]: 100% | pest or weed control at 75 g/ha [15]: 0% | pest or weed control at 75 g/ha [3]: 100% | plant injury at 75 g/ha [16]: 100% | pest or weed control at 75 g/ha [4]: 100% | plant injury at 75 g/ha (maize (Zea mays, ZEAMX)): 100% | pest or weed control at 75 g/ha [5]: 0% | plant injury at 75 g/ha [6]: 100% | plant injury at 75 g/ha [17]: 0% | plant injury at 75 g/ha [18]: 0% | pest or weed control at 75 g/ha [7]: 0% | pest or weed control at 75 g/ha [8]: 0% | pest or weed control at 75 g/ha [9]: 98% | pest or weed control at 75 g/ha [10]: 0% | plant injury at 75 g/ha [11]: 99%

CCON=C(CC)C1=C(O)CC(c2c(C)cc(C)cc2C)CC1=O (stereo not drawn) [Tralkoxydim, 2-[1-(ethoxyimino)propyl]-3-hydroxy-5-mesitylcyclohex-2-enone]
pest or weed control at 200 g/ha [1]: 30% | pest or weed control at 200 g/ha [15]: 5% | pest or weed control at 200 g/ha [3]: 0% | plant injury at 200 g/ha [16]: 60% | pest or weed control at 200 g/ha [4]: 50% | plant injury at 200 g/ha (maize (Zea mays, ZEAMX)): 100% | pest or weed control at 200 g/ha [5]: 0% | plant injury at 200 g/ha [6]: 75% | plant injury at 200 g/ha [17]: 0% | pest or weed control at 200 g/ha [7]: 0% | pest or weed control at 200 g/ha [8]: 0% | pest or weed control at 200 g/ha [9]: 100% | pest or weed control at 200 g/ha [10]: 5% | pest or weed control at 200 g/ha [12]: 10% | Effect (% visual injury) Obs [19]: 0% | Effect (% visual injury) Obs ([13]; Tralkoxydim 200 g ai/ha): 0% | plant injury at 200 g/ha [14]: 0%
